Data taken from patent US20100210553A1, “USE OF THE PEPTIDE ASN-ASP-ASP-CYS-GLU- LEU-CYS-VAL-ASN-VAL-ALA-CYS-THR-GLY-CYS-LEU ALONE OR IN COMBINATION WITH THE PEPTIDE THR-THR-SER-GLN-VAL- ARG-PRO-ARG AS A THERAPEUTIC AGENT” (priority 2007, published 2010).
Ends that are not written are not given here.

Legend:
[1] = system: HCMV strain AD169; experiment: HCMV plaque formation assay in MRC-5 cells; settings: 10 micrograms per ml, 7-10 days
[2] = system: Streptococcus pneumoniae; experiment: Streptococcus pneumoniae assay; type: cell-based; settings: 10 micrograms per ml; 5x10^5 CFU/mL, read visually; combination 0.95 mole peptide 1 and 1.05 mole peptide 2 and all other molar ratios from 1:100 to 100:1
[3] = system: Primary Human endothelial cells (HUVEC); experiment: Endothelial cell migration assay; type: cell-based; settings: 10 micrograms per ml, 22 hours
[4] = system: murine spleen cells; experiment: Th1/Th2 cytokine profiling assay (Ovalbumin-restimulated spleen cells, CBA Kit); type: cell-based, mouse; settings: 10 micrograms per ml, Ovalbumin restimulation, 72 hours, combination 0.95 mole peptide 1 and 1.05 mole peptide 2
[5] = system: HUVEC; experiment: Endothelial tube formation assay; type: cell-based, human; settings: 10 micrograms per ml, 20 hours
Description: The endothelial tube formation assay is based on the ability of endothelial cells to form three-dimensional capillary-like tubular structures when cultured on a gel of basement membrane extract. The endothelial tube formation assay represents a powerful model for studying inhibition and induction of angiogenesis. Pre-labeled HUVEC with Calcein AM were seeded in a 96-well culture plate coated with extracellular metrix (Chemicon international Cat. ECM625) and treated with—10 micrograms per ml—test peptides in full growth medium. Positive control was vehicle only. The endothelial cells were allowed to form tubes for 20 hours and were then examined under an inverted fluorescent microscope. Duplicate wells for each treatment were photographed and quantitatively analyzed for an average tubule length using image analysis software ImageProPlus. Raw data were expressed as average tubule lengths in pixels ±standard deviation. Statistic p values were computed using the Student's t-test.

[6] = system: hepatitis B virus (HBV) ayw strain; experiment: HBV experimental assay system (HepG2-2.2.15, TaqMan PCR of secreted HBV DNA); type: cell-based; settings: 10 micrograms per ml; HepG2-2.2.15, six days; combination 0.95 mole peptide 1 and 1.05 mole peptide 2
Description: HepG2-2.2.15 is a stable cell line containing the hepatitis B virus (HBV) ayw strain genome (ATCC Cat. No. CRL-11997). Antiviral compounds blocking any late step of viral replication such as transcription, translation, pregenome encapsidation, reverse transcription, particle assembly and release can be identified and characterized using this cell line. In this assay, an active compound will reduce the production of secreted HBV from cells, measured by utilizing real time quantitative PCR (TaqMan) assay to directly and accurately measure HBV DNA copies.
HepG2-2.2.15 cells were plated in 96-well microtiter plates. After 16-24 hours the confluent monolayer of HepG2-2.2.15 cells was washed and the medium was replaced with complete medium containing test peptides—10 micrograms per ml—in duplicate. […] Six days following the initial administration of the peptides, the cell culture supernatants was collected, treated with pronase and DNAse and then used in a real-time quantitative TaqMan PCR assay. The PCR-amplified HBV DNA was detected in real-time by monitoring increases in fluorescence signals that result from the exonucleolytic degradation of a quenched fluorescence probe molecule that hybridizes to the amplified HBV DNA. […] Antiviral activity was calculated from the reduction in HBV DNA levels (% virus control). […]

Row | Substance | inhibition of HCMV plaque formation as compared to the virus control experiment [1] | inhibition of the growth of Streptococcus pneumoniae [2] [%] | inhibition of the migration of human endothelial cells [3] [%] | change of the production of IL-5 [4] | induction of the production of IFN-γ [4] [%] | induction of the production of IL-2 [4] [%] | induction of the production of IL-4 [4] [%] | induction of the production of TNF-alpha [4] [%] | inhibition of the tube formation of human endothelial cells [5] [%] | inhibition of HBV replication as compared to the virus control infection [6]
1 | Asn-Asp-Asp-Cys-Glu-Leu-Cys-Val-Asn-Val-Ala-Cys-Thr-Gly-Cys-Leu-OH (NDDCELCVNVACTGCL-OH; cysteine pairing not given here) [Peptide 1, commercially available known peptide, Uroguanylin] | did not inhibit | 100 | 14 | did not significantly change | 80.8 | 66.9 | 143.8 | 57.1 | 18 | no effect
2 | Thr-Thr-Ser-Gln-Val-Arg-Pro-Arg-OH (TTSQVRPR-OH) [Peptide 2, commercially available known peptide, (Gln^18)-Platelet Factor 4 (15-22)] | did not inhibit | 100 | 13 | did not significantly change | 47.4 | 24 | 103.9 | 43.7 | 24 | 31%
